Measured values from patent US20150094321A1, “COMBINATION” (GlaxoSmithKline LLC, priority 2009, published 2015).

Legend:
HCC1954 = test: Cell growth inhibition assay; format: cell-based; conditions: Homo sapiens, HCC1954, HCC1954, breast, HER2+, PIK3CA H1047R; single agent; read-out: IC50 Single Agent (mean +/- std)
Protocol: (§1) Human breast tumor lines. BT-474, HCC1419, HCC1937, HCC1954, HCC202, KPL-1, MDA-MB-157, MDA-MB-175-VII, MDA-MB-361, MDA-MB-453, SK-BR-3, SUM225PE, UACC893, and ZR-75-1; lung tumor line, CALU-3; and melanoma line, CHL-1, were from ATCC. Human breast tumor line JIMT-1 was from European Collection of Cell Cultures (UK). Human breast tumor lines SUM149PT, SUM190PT and SUM52PE were from Asterand. These lines were cultured in RPMI 1640 medium containing 10% fetal bovine serum (FBS). A head and neck tumor line, LICR LON HN5 (HN5), a gift from the Institute of Cancer Research, Surrey, U.K, was cultured in Dulbecco's modified Eagle medium (DMEM) containing 5% FBS; KPL-4 breast tumor cell line was kindly provided by Dr Junichi Kurebayashi (Kawasaki Medical School, Okayama, Japan) and cultured in DMEM containing 5% FBS. JIMT-1 is a line derived from a patient clinically resistant to trastuzumab (Herceptin®). BT-474-J4 is a single cell clone derived from a pool of BT-474 cells that were selected to grow in lapatinib to a concentration of 3 μM.
(§2) All cells were cultured for a minimum of 72 hours prior to cell plating. Cells were assayed in a 96-well tissue culture plate (NUNC 136102) of RPMI medium containing 10% FBS for all cells at 2,000 cells per well except KPL-4 and HN5 which were plated in DMEM containing 5% FBS at 500 cells per well. Approximately 24 hours after plating, cells were exposed to ten, two-fold or three-fold serial dilutions of compound or the combination of the two agents at a constant molar to molar ratio of 1:1 Compound A to Compound B in RPMI media containing 10% FBS or DMEM containing 5% FBS. Cells were incubated in the presence of compounds for 3 days. ATP levels were determined by adding Cell Titer Glo® (Promega) according to the manufacturer's protocol. Briefly, Cell Titer Glo® was added each plate, incubated for 20 minutes then luminescent signal was read on the SpectraMax L plate reader with a 0.5 sec integration time.
(§3) Inhibition of cell growth was estimated after treatment with compound or combination of compounds for three days and comparing the signal to cells treated with vehicle (DMSO). Cell growth was calculated relative to vehicle (DMSO) treated control wells. Concentration of compound that inhibits 50% of control cell growth (IC50) was interpolated using nonlinear regression with the equation, y=(A+(B−A)/(1+(C/x)̂D))), where A is the minimum response (ymin), B is the maximum response (ymax), C is the inflection point of the curve (EC50) and D is the Hill coefficient. […]

ZR-75-1 = test: Cell growth inhibition assay; format: cell-based; conditions: Homo sapiens, ZR-75-1, ZR-75-1, breast, PTEN L108R; single agent; read-out: IC50 Single Agent (mean +/- std)
Protocol: as §1, §2, §3

`CC(=O)Nc1cccc(-n2c(=O)n(C3CC3)c(=O)c3c(Nc4ccc(I)cc4F)n(C)c(=O)c(C)c32)c1` [Compound A, N-{3-[3-cyclopropyl-5-(2-fluoro-4-iodo-phenylamino)-6,8-dimethyl-2,4,7-trioxo-3,4,6,7-tetrahydro-2H-pyrido[4,3-d]pyrimidin-1-yl]phenyl}acetamide] was tested. Which IC50 (HCC1954) did it give?
The IC50 was greater than 1000 nM.

And the IC50 (ZR-75-1)?
Its IC50 is greater than 1000 nM.
